From PubChem BioAssay (NCI)
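How tested: cells in 96-well plates exposed to compound for 48 hours at five concentrations. GI50 marks 50% less growth. TGI is the concentration that stops growth completely.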

Legend:
Assay in all cases: growth of human tumour cells (NCI), 48 h
HL-60(TB) leukemia = system: HL-60(TB) leukemia
SNB-75 CNS = system: SNB-75 CNS
ACHN renal = system: ACHN renal
SW-620 colon = system: SW-620 colon
NCI/ADR-RES ovarian = system: NCI/ADR-RES ovarian
A549 NSCLC = system: A549 NSCLC
HCT-116 colon = system: HCT-116 colon
SN12C renal = system: SN12C renal
DU-145 prostate = system: DU-145 prostate
OVCAR-8 ovarian = system: OVCAR-8 ovarian
HS 578T breast = system: HS 578T breast
PC-3 prostate = system: PC-3 prostate
SK-OV-3 ovarian = system: SK-OV-3 ovarian
NCI-H23 lung = system: NCI-H23 lung
SF-268 CNS = system: SF-268 CNS
TK-10 renal = system: TK-10 renal
CCRF-CEM leukemia = system: CCRF-CEM leukemia
HOP-62 NSCLC = system: HOP-62 NSCLC
U251 CNS = system: U251 CNS
UACC-62 melanoma = system: UACC-62 melanoma
BT-549 breast = system: BT-549 breast
HCT-15 colon = system: HCT-15 colon
OVCAR-5 ovarian = system: OVCAR-5 ovarian
SNB-19 CNS = system: SNB-19 CNS
UACC-257 melanoma = system: UACC-257 melanoma
NCI-H460 lung = system: NCI-H460 lung
SF-295 CNS = system: SF-295 CNS
LOX IMVI melanoma = system: LOX IMVI melanoma
MDA-MB-435 = system: MDA-MB-435
COLO 205 colon = system: COLO 205 colon
MDA-MB-231 breast = system: MDA-MB-231 breast
SK-MEL-28 melanoma = system: SK-MEL-28 melanoma
RXF 393 renal = system: RXF 393 renal
HOP-92 NSCLC = system: HOP-92 NSCLC
NCI-H226 lung = system: NCI-H226 lung
UO-31 renal = system: UO-31 renal
NCI-H522 lung = system: NCI-H522 lung
MALME-3M melanoma = system: MALME-3M melanoma
HT29 colon = system: HT29 colon
MCF7 breast = system: MCF7 breast
KM12 colon = system: KM12 colon
EKVX NSCLC = system: EKVX NSCLC
RPMI-8226 leukemia = system: RPMI-8226 leukemia
HCC-2998 colon = system: HCC-2998 colon
M14 melanoma = system: M14 melanoma
MOLT-4 leukemia = system: MOLT-4 leukemia
IGROV1 ovarian = system: IGROV1 ovarian
OVCAR-3 ovarian = system: OVCAR-3 ovarian
SR leukemia = system: SR leukemia
A498 renal = system: A498 renal
SK-MEL-5 melanoma = system: SK-MEL-5 melanoma
786-0 renal = system: 786-0 renal
T-47D breast = system: T-47D breast
K-562 leukemia = system: K-562 leukemia
SK-MEL-2 melanoma = system: SK-MEL-2 melanoma
CAKI-1 renal = system: CAKI-1 renal
SF-539 CNS = system: SF-539 CNS

Q: How did the GI50 (HL-60(TB) leukemia) turn out when `Cn1cc(-c2nc3c(F)cc4[nH]ncc4c3c3c2CCCC3)c(C(F)(F)F)n1` was run?
A: 5.5 µM

Q: What about the TGI (HL-60(TB) leukemia) of the same molecule?
A: 28.2 µM

Q: What about the GI50 (SNB-75 CNS) of the same molecule?
A: 3.69 µM

Q: What about the TGI (SNB-75 CNS) of the same molecule?
A: 16.9 µM

Q: And the GI50 (ACHN renal)?
A: 5.05 µM

Q: What about the TGI (ACHN renal) of the same molecule?
A: > 100 µM

Q: And the GI50 (SW-620 colon)?
A: 11.3 µM

Q: What about the TGI (SW-620 colon) of the same molecule?
A: 48.7 µM

Q: And the GI50 (NCI/ADR-RES ovarian)?
A: 15.8 µM

Q: And the TGI (NCI/ADR-RES ovarian)?
A: > 100 µM

Q: And the GI50 (A549 NSCLC)?
A: 5.7 µM

Q: What about the TGI (A549 NSCLC) of the same molecule?
A: 59.4 µM

Q: And the GI50 (HCT-116 colon)?
A: 4.3 µM

Q: And the TGI (HCT-116 colon)?
A: 22.1 µM

Q: What about the GI50 (SN12C renal) of the same molecule?
A: 8.25 µM

Q: And the TGI (SN12C renal)?
A: 81.8 µM

Q: What about the GI50 (DU-145 prostate) of the same molecule?
A: 10.9 µM

Q: And the TGI (DU-145 prostate)?
A: 77.7 µM

Q: And the GI50 (OVCAR-8 ovarian)?
A: 15.3 µM

Q: And the TGI (OVCAR-8 ovarian)?
A: > 100 µM

Q: What about the GI50 (HS 578T breast) of the same molecule?
A: 4.59 µM

Q: And the TGI (HS 578T breast)?
A: 27.2 µM

Q: What about the GI50 (PC-3 prostate) of the same molecule?
A: 14.6 µM

Q: And the TGI (PC-3 prostate)?
A: > 100 µM

Q: What about the GI50 (SK-OV-3 ovarian) of the same molecule?
A: 6.85 µM

Q: And the TGI (SK-OV-3 ovarian)?
A: 38.5 µM

Q: What about the GI50 (NCI-H23 lung) of the same molecule?
A: 8.73 µM

Q: What about the TGI (NCI-H23 lung) of the same molecule?
A: > 100 µM

Q: And the GI50 (SF-268 CNS)?
A: 12 µM

Q: What about the TGI (SF-268 CNS) of the same molecule?
A: 55.3 µM

Q: And the GI50 (TK-10 renal)?
A: 10.1 µM

Q: What about the TGI (TK-10 renal) of the same molecule?
A: 75 µM

Q: What about the GI50 (CCRF-CEM leukemia) of the same molecule?
A: 4.66 µM

Q: And the TGI (CCRF-CEM leukemia)?
A: > 100 µM

Q: What about the GI50 (HOP-62 NSCLC) of the same molecule?
A: 6.22 µM

Q: And the TGI (HOP-62 NSCLC)?
A: 44 µM

Q: What about the GI50 (U251 CNS) of the same molecule?
A: 18.2 µM

Q: What about the TGI (U251 CNS) of the same molecule?
A: 56.9 µM

Q: What about the GI50 (UACC-62 melanoma) of the same molecule?
A: 5.54 µM

Q: What about the TGI (UACC-62 melanoma) of the same molecule?
A: 28.3 µM

Q: What about the GI50 (BT-549 breast) of the same molecule?
A: 2.62 µM

Q: What about the TGI (BT-549 breast) of the same molecule?
A: 15.4 µM

Q: And the GI50 (HCT-15 colon)?
A: 14.2 µM

Q: And the TGI (HCT-15 colon)?
A: > 100 µM

Q: What about the GI50 (OVCAR-5 ovarian) of the same molecule?
A: 19.2 µM

Q: And the TGI (OVCAR-5 ovarian)?
A: 86.6 µM

Q: And the GI50 (SNB-19 CNS)?
A: 26.8 µM

Q: What about the TGI (SNB-19 CNS) of the same molecule?
A: > 100 µM

Q: And the GI50 (UACC-257 melanoma)?
A: 25.9 µM

Q: And the TGI (UACC-257 melanoma)?
A: > 100 µM

Q: What about the GI50 (NCI-H460 lung) of the same molecule?
A: 10.4 µM

Q: What about the TGI (NCI-H460 lung) of the same molecule?
A: 33.9 µM

Q: And the GI50 (SF-295 CNS)?
A: 9.57 µM

Q: And the TGI (SF-295 CNS)?
A: 69.8 µM

Q: What about the GI50 (LOX IMVI melanoma) of the same molecule?
A: 7.8 µM

Q: And the TGI (LOX IMVI melanoma)?
A: 25 µM

Q: And the GI50 (MDA-MB-435)?
A: 5.36 µM

Q: And the TGI (MDA-MB-435)?
A: > 100 µM

Q: And the GI50 (COLO 205 colon)?
A: 19.6 µM

Q: What about the TGI (COLO 205 colon) of the same molecule?
A: 57.1 µM

Q: What about the GI50 (MDA-MB-231 breast) of the same molecule?
A: 13.1 µM

Q: And the TGI (MDA-MB-231 breast)?
A: > 100 µM

Q: What about the GI50 (SK-MEL-28 melanoma) of the same molecule?
A: 12.8 µM

Q: What about the TGI (SK-MEL-28 melanoma) of the same molecule?
A: 74.8 µM

Q: What about the GI50 (RXF 393 renal) of the same molecule?
A: 2.67 µM

Q: And the TGI (RXF 393 renal)?
A: 12.2 µM

Q: And the GI50 (HOP-92 NSCLC)?
A: 19.6 µM

Q: What about the TGI (HOP-92 NSCLC) of the same molecule?
A: > 100 µM

Q: What about the GI50 (NCI-H226 lung) of the same molecule?
A: 22.7 µM

Q: What about the TGI (NCI-H226 lung) of the same molecule?
A: 67.2 µM

Q: What about the GI50 (UO-31 renal) of the same molecule?
A: 4.26 µM

Q: And the TGI (UO-31 renal)?
A: 19.5 µM

Q: And the GI50 (NCI-H522 lung)?
A: 3.45 µM

Q: What about the TGI (NCI-H522 lung) of the same molecule?
A: 19.6 µM

Q: What about the GI50 (MALME-3M melanoma) of the same molecule?
A: 8.87 µM

Q: What about the TGI (MALME-3M melanoma) of the same molecule?
A: 34.2 µM

Q: And the GI50 (HT29 colon)?
A: 9.05 µM

Q: And the TGI (HT29 colon)?
A: > 100 µM

Q: What about the GI50 (MCF7 breast) of the same molecule?
A: 5.38 µM

Q: And the TGI (MCF7 breast)?
A: 45.4 µM

Q: What about the GI50 (KM12 colon) of the same molecule?
A: 2.85 µM

Q: And the TGI (KM12 colon)?
A: > 100 µM

Q: What about the GI50 (EKVX NSCLC) of the same molecule?
A: 9.47 µM

Q: What about the TGI (EKVX NSCLC) of the same molecule?
A: 36.6 µM

Q: What about the GI50 (RPMI-8226 leukemia) of the same molecule?
A: 11.5 µM

Q: What about the TGI (RPMI-8226 leukemia) of the same molecule?
A: > 100 µM

Q: And the GI50 (HCC-2998 colon)?
A: 16.4 µM

Q: What about the TGI (HCC-2998 colon) of the same molecule?
A: 49.3 µM

Q: What about the GI50 (M14 melanoma) of the same molecule?
A: 8.54 µM

Q: And the TGI (M14 melanoma)?
A: 44.2 µM

Q: And the GI50 (MOLT-4 leukemia)?
A: 4.2 µM

Q: And the TGI (MOLT-4 leukemia)?
A: 40.4 µM

Q: And the GI50 (IGROV1 ovarian)?
A: 4.15 µM

Q: And the TGI (IGROV1 ovarian)?
A: 28.7 µM

Q: And the GI50 (OVCAR-3 ovarian)?
A: 23.2 µM

Q: What about the TGI (OVCAR-3 ovarian) of the same molecule?
A: 75.8 µM

Q: What about the GI50 (SR leukemia) of the same molecule?
A: 5.25 µM

Q: And the TGI (SR leukemia)?
A: > 100 µM

Q: What about the GI50 (A498 renal) of the same molecule?
A: 1.7 µM

Q: What about the TGI (A498 renal) of the same molecule?
A: 4.88 µM

Q: What about the GI50 (SK-MEL-5 melanoma) of the same molecule?
A: 9.12 µM

Q: What about the TGI (SK-MEL-5 melanoma) of the same molecule?
A: 22.9 µM

Q: What about the GI50 (786-0 renal) of the same molecule?
A: 10.7 µM

Q: And the TGI (786-0 renal)?
A: 27.7 µM

Q: What about the GI50 (T-47D breast) of the same molecule?
A: 9.51 µM

Q: And the TGI (T-47D breast)?
A: 76.9 µM

Q: What about the GI50 (K-562 leukemia) of the same molecule?
A: 8.25 µM

Q: And the TGI (K-562 leukemia)?
A: > 100 µM

Q: What about the GI50 (SK-MEL-2 melanoma) of the same molecule?
A: 13 µM

Q: And the TGI (SK-MEL-2 melanoma)?
A: 30.5 µM

Q: What about the GI50 (CAKI-1 renal) of the same molecule?
A: 3.33 µM

Q: And the TGI (CAKI-1 renal)?
A: > 100 µM

Q: And the GI50 (SF-539 CNS)?
A: 7.55 µM

Q: What about the TGI (SF-539 CNS) of the same molecule?
A: 22.8 µM
